Like-named read-outs stand apart in the source and are kept apart here.
Biological target: NanoLuc-PRMT5 co-expressed with WDR77 (Homo sapiens, UniProt O14744)
Assay: Live-cell NanoBRET target engagement with BRET probe CBH-002 in HEK293 cells expressing NanoLuc-PRMT5 and unlabeled WDR77
Format: cell-based
Design: host or cells: HEK293
Settings: HEK293, Figure S2H, log([compound]), read-out: normalised BRET, Bio rep 1-3; for remaining activity at 0.3715 µM: uM -0.43; for remaining activity at 0.04074 µM: uM -1.39; for remaining activity at 0.0138 µM: uM -1.86; for remaining activity at 0.004571 µM: uM -2.34; for remaining activity at 0.001514 µM: uM -2.82; for remaining activity at 0.0005129 µM: uM -3.29; for remaining activity at 0.0001698 µM: uM -3.77
Description: HEK293 cells (ATCC) were cultured in DMEM (Thermo Fisher) + 10% (v/v) FBS (Seredigm), and HCT116 cells (Horizon Discovery, #PAR-034 and #R02-033) were cultured in McCoy’s 5A (Thermo Fisher) + 10% FBS, with incubation in a humidified, 37 °C/5% CO2 incubator. Cells were split 1–3 days prior to performing experiments and used at roughly 80% confluency. […] Cells were transfected according to the manufacturer’s protocol using FuGENE HD (Promega). NanoLuc fusion DNA was diluted into Transfection Carrier DNA (Promega) in Opti-MEM at a ratio of 1:9 (mass/mass), and FuGENE HD was added at a ratio of 1:3 (μg DNA:μL lipid). […] Formed complexes were combined with cells resuspended to a density of 2 × 10^5 cells/mL in Opti-MEM + 1% FBS at a ratio of 1:20 (vol:vol). […] Cells were seeded at a density of 2 × 10^5 cells/mL in Opti-MEM + 1% FBS in 100 μL (96-well). The BRET probe CBH-002 was prepared first as a 100× stock in 100% DMSO (Sigma) and then diluted to a 20× stock in NanoBRET Tracer Dilution buffer (Promega). Test compounds were prepared as 1000× stocks in 100% DMSO and diluted to 10× stocks in Opti-MEM to prepare working stocks. […] NanoBRET Complete 3x Substrate was prepared by combining Nano-Glo Substrate and Extracellular NanoLuc Inhibitor in Opti-MEM, according to the manufacturer’s protocol (Promega).
BRET ratio values were calculated by dividing the acceptor by the donor signal, and raw BRET was converted to milli-BRET (mBRET) units (mBu) by multiplying by 1000.
EC50 values were obtained by fitting the BRET probe and compound affinity curves to a sigmoidal four-parameter fit model in Graphpad Prism:1 Y=Ymin+Ymax−Ymin/1+10^LogEC50−Xh where h is the Hill Slope.
When normalized BRET was used, mBRET values were normalized using2 NormalizedBRET%=(Y−BRETmin)/BRETmax−BRETmin where y = mBRET in the presence of test compound and BRET probe, BRETmin = mBRET at the highest concentration (saturating) of test compound and BRET probe, and BRETmax = mBRET in the presence of vehicle (DMSO) and BRET probe.
Normalized concentration-response curves showing full competition were fit using a 2-parameter model:3 Y=100/1+10^LogEC50−Xh
In situations where only partial competition was observed, the normalized concentration-response curves were fit using Eq. 1 and where Ymin was constrained to >0.

NanoLuc-PRMT5 co-expressed with WDR77, sequence (O14744 whole entry): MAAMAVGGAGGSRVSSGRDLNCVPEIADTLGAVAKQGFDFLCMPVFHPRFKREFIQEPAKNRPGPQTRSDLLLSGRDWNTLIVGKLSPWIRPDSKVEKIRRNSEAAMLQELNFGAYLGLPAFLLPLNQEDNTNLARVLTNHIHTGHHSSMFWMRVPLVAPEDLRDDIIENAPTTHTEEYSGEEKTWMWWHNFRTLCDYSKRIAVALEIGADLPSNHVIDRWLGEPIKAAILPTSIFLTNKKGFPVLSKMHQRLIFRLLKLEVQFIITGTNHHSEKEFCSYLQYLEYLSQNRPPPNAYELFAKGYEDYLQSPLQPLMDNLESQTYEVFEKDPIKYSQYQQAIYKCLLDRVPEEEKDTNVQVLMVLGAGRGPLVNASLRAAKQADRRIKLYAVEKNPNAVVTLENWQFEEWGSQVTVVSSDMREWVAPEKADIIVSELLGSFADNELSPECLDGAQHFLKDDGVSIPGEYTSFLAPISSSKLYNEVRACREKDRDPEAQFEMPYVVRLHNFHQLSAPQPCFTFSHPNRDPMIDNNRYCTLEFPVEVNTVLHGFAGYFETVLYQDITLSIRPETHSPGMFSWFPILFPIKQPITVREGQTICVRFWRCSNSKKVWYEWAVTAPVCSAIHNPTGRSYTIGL
NanoLuc-PRMT5 co-expressed with WDR77, sequence (Q9BQA1 whole entry partner): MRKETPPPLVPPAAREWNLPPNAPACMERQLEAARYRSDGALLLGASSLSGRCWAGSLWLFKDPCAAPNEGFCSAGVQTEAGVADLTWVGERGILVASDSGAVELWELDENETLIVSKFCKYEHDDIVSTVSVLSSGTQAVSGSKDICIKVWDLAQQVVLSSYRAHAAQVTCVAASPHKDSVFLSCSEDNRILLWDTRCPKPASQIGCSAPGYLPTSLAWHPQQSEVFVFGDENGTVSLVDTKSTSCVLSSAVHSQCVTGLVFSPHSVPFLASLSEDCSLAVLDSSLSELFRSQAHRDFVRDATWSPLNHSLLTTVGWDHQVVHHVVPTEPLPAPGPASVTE

| Structure (SMILES) | remaining activity at […] (uM 0.0458) | remaining activity at […] (uM 0.52) | remaining activity at 0.3715 µM | remaining activity at […] (uM -0.91) | remaining activity at 0.04074 µM | remaining activity at 0.0138 µM | remaining activity at 0.004571 µM | remaining activity at 0.001514 µM | remaining activity at 0.0005129 µM | remaining activity at 0.0001698 µM |
| --- | --- | --- | --- | --- | --- | --- | --- | --- | --- | --- |
| CC(C)Oc1ccc(-c2c[nH]cc2CN(C)CCN)cc1 [MS023, reference compound] | 103% | 102% | 102% | 103% | 103% | 104% | 101% | 102% | 103% | 98% |
| CNCCN1CCC(c2cc(CN(C)C(=O)c3cccc(Oc4ccccc4)c3)ccn2)CC1 [TP064, reference compound] | 100% | 99% | 102% | 102% | 101% | 101% | 99.8% | 97.9% | 97.6% | 97.4% |
